Test results from article PMC10004634 (PLOS ONE, 2023).
“Also recorded” adds a separate entry of the source.

Tests used:
T-cells in human PBMC = experiment: PBMC stimulation assay, anti-CD3/CD28-stimulated T-cell activation (CD69); format: cell-based; details: 16 h, up to the highest concentration of 10 μM
Description: After culturing, the stimulated cells were stained with fluorescently labeled CD3, CD20, and CD69 antibodies. B-cells (identified by gating CD20-positive and CD3-negative cells) and T-cells (identified by gating CD3-positive and CD20-negative cells) were analyzed by flow cytometry to monitor the expression of CD69. […] GraphPad Prism version 5.04 (GraphPad Software, Inc., San Diego, CA, USA) and its base settings were used for initial values and convergence conditions.

TMD8 cells [1] = experiment: Western blot of BTK downstream signaling (p-PLCγ2, p-ERK1/2, p-AKT, p-IκBα); format: cell-based, human
Description: (§1) After culturing, cells were harvested and lysed with cell lysis buffer (Cell Signaling Technology, Inc.) containing 1 mM AEBSF (Calbiochem, #101500). As a positive control of BTK autophosphorylation for western blot analysis, TMD8 cells were treated with hydrogen peroxide (H2O2; final concentration: 6 mM) for 10 min, harvested as a control sample, and then lysed with the cell lysis buffer.
(§2) Each mixture of cells and cell lysis buffer was incubated on ice for 5 min, then centrifuged at 13400 × g and 4°C for 10 min. Total lysates were loaded on 4%–12% SDS-PAGE (Bio-Rad) and transferred to a polyvinylidene difluoride (PVDF) membrane (Immobilon-P Transfer Membrane, Millipore Corporation). The blot was incubated in Tris-buffered saline with Tween 20 (TBS-T, Cell Signaling Technology, Inc.) containing 2 w/v% ECL Advance Blocking Agent (GE Healthcare Life Sciences, b) for 1 h at room temperature. The blocked PVDF membranes were immersed in TBS-T and washed three times with shaking at room temperature for 10 min. The membrane was incubated with primary antibody in TBS-T containing 2 w/v% ECL Advance Blocking Agent with gentle agitation overnight at 5°C in a cold storage room or for 1 h at room temperature. Rabbit monoclonal anti- phosphorylated BTK (Tyr-223) antibody (p-BTK; Novus Biologicals, #NB100-79907), rabbit monoclonal BTK antibody (Cell Signaling Technology, Inc., #3533), rabbit polyclonal phosphorylated AKT (Ser-473) antibody (p-AKT; Cell Signaling Technology, Inc., #9271), rabbit monoclonal AKT (pan) (C67E7) antibody (Cell Signaling Technology, Inc., #4691), rabbit polyclonal phosphorylated p44/42 MAPK (ERK1/2) (Thr-202/Tyr-204) antibody (p-ERK1/2; Cell Signaling Technology, Inc., #9101), rabbit monoclonal p44/42 MAPK (ERK1/2) (137F5) antibody (Cell Signaling Technology, Inc., #4695), rabbit monoclonal phosphorylated PLCγ2 (Tyr-759) (E9E9Y) antibody (p-PLCγ2; Cell Signaling Technology, Inc., #50535), rabbit monoclonal PLCγ2 (E5U4T) antibody (Cell Signaling Technology, Inc., #55512), mouse monoclonal phosphorylated IκBα (Ser-32/36) (5A5) antibody (p-IκBα; Cell Signaling Technology, Inc., #9246), rabbit monoclonal IκBα (44D4) antibody (Cell Signaling Technology, Inc., #4812), rabbit polyclonal phosphorylated PKCβ (phospho-Thr-641) antibody (p-PKCβ; Signalway Antibody LLC, #11172), rabbit monoclonal IRF4 (D9P5H) antibody (Cell Signaling Technology, Inc., #15106), rabbit monoclonal BCL6 (D65C10) antibody (Cell Signaling Technology, Inc., #5650), rabbit monoclonal c-MYC (D84C12) antibody (Cell Signaling Technology, Inc., #5605), and rabbit monoclonal GAPDH (14C10) antibody (Cell Signaling Technology, Inc., #2118) were used. The PVDF membranes were immersed in TBS-T and washed three times with shaking at room temperature for 10 min, then incubated with secondary antibody with shaking for 1 h at room temperature. The secondary antibody used was anti-rabbit-IgG horseradish peroxidase (HRP)-linked antibody (Cell Signaling Technology, #7074) or goat anti-rabbit immunoglobulins/HRP (Dako, P0448). The PVDF membranes were washed three times with shaking at room temperature for 10 min and were treated with ECL^TM Advance Western Blotting Detection Kit (GE Healthcare Life Sciences, #RPN2135) for chemiluminescent detection according to the manufacturer’s instruction. Lumino-image analyzer (LAS-1000 Plus system, Fuji Photo Film Co., Ltd.) and Image Reader LAS-1000 Lite version 1.3 (Fuji Photo Film Co., Ltd.) were used to visualize bands. The densitometry analysis described the ratio of phosphorylated to total BTK protein. […] 5.04 (GraphPad Software, Inc.).

U-2932 cells = experiment: as above; format: cell-based, human
Description: as §1, §2

TMD8 cells [2] = experiment: RT-qPCR of IRF4, BCL6, MYC mRNA; format: cell-based, human; details: 24 h
Description: After culturing, total RNA was isolated from cells using the RNeasy Plus Mini Kit (Qiagen), then cDNA was prepared from total RNA using the SuperScript VILO cDNA Synthesis Kit (Invitrogen) following the kit instructions. For quantification of each mRNA expression level, PCR was performed using TaqMan Fast Universal PCR Master Mix (Thermo Fisher Scientific) under the following conditions with the AriaMx Real Time PCR System (Agilent Technologies): 95°C for 3 min, followed by 40 cycles at 95°C for 5 s and 60°C for 20 s with continuous fluorescence measurement. All PCRs were performed in triplicate, and the mRNA expression of GAPDH was used as an internal control. The results (fold changes of the threshold cycle [Ct] relative to the control group) were obtained using the 2^−ΔΔCt method. The TaqMan probes for IRF4 (Assay ID: Hs00180031_m1), BCL6 (Assay ID: Hs00153368_m1), MYC (Assay ID: Hs00153408_m1), and GAPDH (Assay ID: Hs02786624_g1) were purchased from Thermo Fisher Scientific. Statistical tests were performed with the SAS 9.4 (SAS Institute Japan Ltd., Tokyo, Japan) TS1M4-based EXSUS system version 10.1.3 (CAC Corporation, Tokyo, Japan). The t-test or Dunnett test was used to compare mRNA expression in the DMSO- and compound-treated groups. The statistical tests were two-sided with a 5% significance level.

RIPK2 = RIPK2 (Homo sapiens, UniProt O43353); experiment: KinAffinity cell-based binding assay using PBMC; set-up: in a cell-based assay using PBMC (Kd); host or cells: PBMC
RIPK2, sequence (O43353 whole entry): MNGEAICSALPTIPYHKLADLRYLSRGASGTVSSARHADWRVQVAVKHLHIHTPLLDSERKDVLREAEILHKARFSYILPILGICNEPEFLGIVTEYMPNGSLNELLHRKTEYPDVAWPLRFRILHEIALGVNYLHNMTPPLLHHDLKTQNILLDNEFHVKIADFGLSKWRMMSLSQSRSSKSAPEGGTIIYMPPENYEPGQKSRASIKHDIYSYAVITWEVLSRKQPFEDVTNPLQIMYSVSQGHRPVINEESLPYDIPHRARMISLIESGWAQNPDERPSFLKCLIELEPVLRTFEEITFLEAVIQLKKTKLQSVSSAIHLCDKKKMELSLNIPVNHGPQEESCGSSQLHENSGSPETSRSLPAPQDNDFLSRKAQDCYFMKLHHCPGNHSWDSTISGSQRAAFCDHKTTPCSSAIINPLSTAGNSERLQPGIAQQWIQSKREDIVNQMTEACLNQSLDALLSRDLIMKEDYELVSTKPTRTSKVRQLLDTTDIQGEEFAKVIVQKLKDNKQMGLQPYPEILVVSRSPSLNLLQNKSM

PFPK5(P.falciparum) = target: T1, PFPK5(P.falciparum) (Plasmodium falciparum, UniProt P61075); experiment: biochemical; details: read-out: Percent control / Zanubrutinib
T1 construct: gene MAL13P1.279
T1 sequence (P61075 whole entry): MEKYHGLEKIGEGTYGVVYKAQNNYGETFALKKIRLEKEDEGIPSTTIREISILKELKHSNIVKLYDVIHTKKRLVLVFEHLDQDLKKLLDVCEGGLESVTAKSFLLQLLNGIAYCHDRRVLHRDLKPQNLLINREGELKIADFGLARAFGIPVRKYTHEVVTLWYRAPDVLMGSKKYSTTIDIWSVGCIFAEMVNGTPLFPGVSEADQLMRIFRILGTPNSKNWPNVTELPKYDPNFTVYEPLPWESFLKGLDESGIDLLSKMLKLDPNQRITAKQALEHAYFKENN

[3] = tirabrutinib 1 μM, BMS-345541 10 μM, MK-2206 1 μM, refametinib 0.1 μM

Row | SMILES | inhibition of anti-CD3/CD28-stimulated T-cell activation (CD69) (T-cells in human PBMC) | p-AKT at Ser-473 (TMD8 cells [1]; 1 μM) | p-IκBα at S32/36 (TMD8 cells [1]; 1 μM, 4 h) | p-ERK (TMD8 cells [1]; 1 h, 10-300 nM) | phosphorylation of PLCγ2 at Tyr-759 (TMD8 cells [1]; 1 h, 10-300 nM) | AKT signaling (p-AKT Ser-473) (U-2932 cells; 1 μM) | p-IκBα at S32/36 (U-2932 cells; 1 μM, 4 h) | p-ERK (U-2932 cells; 1 h, 10-300 nM) | phosphorylation of PLCγ2 at Tyr-759 (U-2932 cells; 1 h, 10-300 nM) | p-ERK (U-2932 cells; 4 h, 10-300 nM) | BCL6 mRNA expression (TMD8 cells [2]; 1 μM) | IRF4 mRNA expression (TMD8 cells [2]; [3]) | MYC mRNA expression (TMD8 cells [2]; [3]) | Kd (RIPK2) [µM] | remaining activity at 0.3 µM (PFPK5(P.falciparum)) [%]
1 | CC#CC(=O)N1CC[C@@H](n2c(=O)n(-c3ccc(Oc4ccccc4)cc3)c3c(N)ncnc32)C1 [Tirabrutinib] | did not inhibit | inhibition | inhibited | inhibited | inhibited | did not indicate inhibition | inhibited | not clear | inhibited | significant inhibition | upregulated | downregulated; also recorded: strongly inhibited | partially downregulated | > 3 | –
2 | C=CC(=O)N1CCC([C@@H]2CCNc3c(C(N)=O)c(-c4ccc(Oc5ccccc5)cc4)nn32)CC1 [Zanubrutinib] | – | – | – | – | – | – | – | – | – | – | – | – | – | – | 100
